Assay results from patent US10947575B2, “Rapid antimicrobial susceptibility test, based on an analysis of changes in morphology and growth pattern of a microbial cell under different concentrations of various antimicrobial agents, and automated cell image analysis system therefor” (priority 2014, dated 2021).
Like-named read-outs stand apart in the source and are kept apart here.

Columns and labels:
E. coli ATCC 25922 [1] = assay: AST by analysis of changes in morphology and growth pattern of a microbial cell (MAC 2.0 chip imaging); type: cell-based; conditions: Normal / Filament / Swelling
From the text: (§1) Four reference strains (E. coli ATCC 25922, S. aureus ATCC 29213, P. aeruginosa ATCC 27853, and E. faecalis ATCC 29212) were used as objective strains, in accordance with Clinical and Laboratory Standards Institute (CLSI) guidelines. […] The bacterial cell in MAC 2.0TM (QuantaMatrix) was monitored through a S Plan Fluor ELWD 60X (NA 1.49) lens of an inverted optical microscope (Eclipse Ti-Nikon, IX71-Olympus) provided in a heating system, and then, an electron multiplying CCD camera (QuantEM:512SC Photometrics for Eclipse Ti) was used to obtain images of a region where is adjacent to an interface between the agarose well of MAC 2.0TM and the antimicrobial agents well, over time.

P. aeruginosa ATCC 27853 [2] = assay: as above; type: cell-based; conditions: Normal / Filament / Swelling
From the text: as §1

E. coli ATCC 25922 [3] = assay: MIC by the proposed method (SCMA), from morphology and growth pattern changes; type: cell-based; conditions: time to result 3 hr
From the text: (§2) The bacterial cell in MAC 2.0™ (QuantaMatrix) was monitored through a S Plan Fluor ELWD 60X (NA 1.49) lens of an inverted optical microscope (Eclipse Ti—Nikon, IX71—Olympus) provided in a heating system, and then, an electron multiplying CCD camera (QuantEM:512SC Photometrics for Eclipse Ti) was used to obtain images of a region where is adjacent to an interface between the agarose well of MAC 2.0™ and the antimicrobial agents well, over time. […] In the AST method according to the inventive concept, minimal inhibitory concentration (MIC) was measured using the changes in morphology and growth pattern of the four reference strains (i.e., E. coli ATCC 25922, S. aureus ATCC 29213, P. aeruginosa ATCC 27853, and E. faecalis ATCC 29212) and was compared with MIC quality control (QC) per CLSI guidelines.

P. aeruginosa ATCC 27853 [4] = assay: as above; type: cell-based; conditions: time to result 3 hr
From the text: as §2

E. coli ATCC 25922 [5] = conditions: time to result 16~20 hr; cited from earlier work
P. aeruginosa ATCC 27853 [6] = conditions: time to result 16~20 hr; cited from earlier work
E. faecalis ATCC 29212 [7] = assay: AST by analysis of changes in morphology and growth pattern of a microbial cell (MAC 2.0 chip imaging); type: cell-based; conditions: RRG = relatively rapid growth, RSG = relatively slow growth
From the text: as §1

S. aureus ATCC 29213 [8] = assay: as above; type: cell-based; conditions: RRG = relatively rapid growth, RSG = relatively slow growth
From the text: as §1

E. faecalis ATCC 29212 [9] = assay: MIC by the proposed method (SCMA), from morphology and growth pattern changes; type: cell-based
From the text: as §2

S. aureus ATCC 29213 [10] = assay: as above; type: cell-based
From the text: as §2

S. aureus ATCC 29213 [11] = conditions: time to result 16~20 hr; cited from earlier work
E. faecalis ATCC 29212 [12] = conditions: time to result 16~20 hr, cited from earlier work
[13] = time to result 4 hr, unit assumed

Row | Compound | Criteria (change in morphology and growth pattern) (E. coli ATCC 25922 [1]) | Criteria (change in morphology and growth pattern) (P. aeruginosa ATCC 27853 [2]) | SCMA Results (MIC) (E. coli ATCC 25922 [3]; unit assumed) | CLSI QC range (MIC) (E. coli ATCC 25922 [5]) | CLSI QC range (MIC) (P. aeruginosa ATCC 27853 [6]) | Criteria (change in morphology and growth pattern) (E. faecalis ATCC 29212 [7]) | Criteria (change in morphology and growth pattern) (S. aureus ATCC 29213 [8]) | SCMA Results (MIC) (E. faecalis ATCC 29212 [9]; time to result 4 hr) | CLSI QC range (MIC) (S. aureus ATCC 29213 [11]) | CLSI QC range (MIC) (E. faecalis ATCC 29212 [12]) | other results
1 | C[C@H]1[C@H](NC(=O)/C(=N\OC(C)(C)C(=O)O)c2csc(N)n2)C(=O)N1S(=O)(=O)O [Aztreonam] | Filament | Filament | 0.12 µg/mL | 0.06~0.25 | 2~8 |  |  |  |  |  | SCMA Results (MIC) (P. aeruginosa ATCC 27853 [4]): 2~4
2 | CC1(C)S[C@@H]2[C@H](NC(=O)[C@H](N)c3ccccc3)C(=O)N2[C@H]1C(=O)O [Ampicillin] | Filament |  |  | 2~8 |  | Normal | Normal | 0.5~1 | 0.5~2 | 0.5~2 | SCMA Results (MIC) (E. coli ATCC 25922 [3]): 2~4; SCMA Results (MIC) (S. aureus ATCC 29213 [10]; [13]): 1 µg/mL
3 | Cc1nnc(SCC2=C(C(=O)O)N3C(=O)[C@@H](NC(=O)Cn4cnnn4)[C@H]3SC2)s1 [Cefazolin] | Filament |  | 2 µg/mL | 1~4 |  |  |  |  |  |  | 
4 | CC[C@H]1OC(=O)[C@H](C)[C@@H](O[C@H]2C[C@@](C)(OC)[C@@H](O)[C@H](C)O2)[C@H](C)[C@@H](O[C@@H]2O[C@H](C)C[C@H](N(C)C)[C@H]2O)[C@](C)(O)C[C@@H](C)C(=O)[C@H](C)[C@@H](O)[C@]1(C)O [Erythromycin] |  |  |  |  |  | RSG | RSG |  | 0.25~1 | 1~4 | SCMA Results (MIC) (E. faecalis ATCC 29212 [9]; 6 hr): 1 (6 hr); SCMA Results (MIC) (S. aureus ATCC 29213 [10]; [13]): 0.25 µg/mL
5 | CC1(C)S[C@@H]2[C@H](NC(=O)[C@H](C(=O)O)c3ccsc3)C(=O)N2[C@H]1C(=O)O [Ticarcilin] |  | Filament |  |  | 8~32 |  |  |  |  |  | SCMA Results (MIC) (P. aeruginosa ATCC 27853 [4]; unit assumed): 16 µg/mL
6 | CO/N=C(\C(=O)N[C@@H]1C(=O)N2C(C(=O)O)=C(COC(C)=O)CS[C@H]12)c1csc(N)n1 [Cefotaxime] | Filament | Filament | 0.06 µg/mL |  | 8~32 |  |  |  |  |  | SCMA Results (MIC) (P. aeruginosa ATCC 27853 [4]; unit assumed): 16 µg/mL
7 | CN[C@H](CC(C)C)C(=O)N[C@H]1C(=O)N[C@@H](CC(N)=O)C(=O)N[C@H]2C(=O)N[C@H]3C(=O)N[C@H](C(=O)N[C@H](C(=O)O)c4cc(O)cc(O)c4-c4cc3ccc4O)[C@H](O)c3ccc(c(Cl)c3)Oc3cc2cc(c3O[C@@H]2O[C@H](CO)[C@@H](O)[C@H](O)[C@H]2O[C@H]2C[C@](C)(N)[C@H](O)[C@H](C)O2)Oc2ccc(cc2Cl)[C@H]1O [Vancomycin] |  |  |  |  |  | Normal growth | normal | 2~4 | 0.5~2 | 1~4 | SCMA Results (MIC) (S. aureus ATCC 29213 [10]; [13]): 1 µg/mL
8 | Penicillin |  |  |  |  |  | Normal | Normal | 1~2 | 0.25~2 | 1~4 | SCMA Results (MIC) (S. aureus ATCC 29213 [10]; [13]): 0.5 µg/mL
9 | CO[C@H]1/C=C/O[C@@]2(C)Oc3c(C)c(O)c4c(O)c(c(/C=N/N5CCN(C)CC5)c(O)c4c3C2=O)NC(=O)/C(C)=C\C=C\[C@H](C)[C@H](O)[C@@H](C)[C@@H](O)[C@@H](C)[C@H](OC(C)=O)[C@@H]1C [Rifampin] |  |  |  |  |  | RSG | RSG | 0.5 µg/mL | 0.004~0.015 | 0.5~4 | SCMA Results (MIC) (S. aureus ATCC 29213 [10]; 6 hr): 0.004~0.08 (6 hr)
10 | C[C@@H](O)[C@H]1C(=O)N2C(C(=O)O)=C(SCCN=CN)C[C@H]12 [Imipenem] |  |  | 0.12 µg/mL |  |  |  |  |  |  |  | SCMA Results (MIC) (P. aeruginosa ATCC 27853 [4]; unit assumed): 1 µg/mL; SCMA Results (MIC) (S. aureus ATCC 29213 [10]; [13]): 0.03 µg/mL
11 | CCN1CCN(C(=O)N[C@@H](C(=O)N[C@@H]2C(=O)N3[C@@H]2SC(C)(C)[C@@H]3C(=O)O)c2ccccc2)C(=O)C1=O [Piperacillin] | Filament formation | Filament | 2 µg/mL | 1~4 | 1~8 |  |  |  |  |  | SCMA Results (MIC) (P. aeruginosa ATCC 27853 [4]): 4~8
12 | NCC[C@H](O)C(=O)N[C@@H]1C[C@H](N)[C@@H](O[C@H]2O[C@H](CN)[C@@H](O)[C@H](O)[C@H]2O)[C@H](O)[C@H]1O[C@H]1O[C@H](CO)[C@@H](O)[C@H](N)[C@H]1O [Amikacin] | Normal growth | Normal |  | 0.5~4 | 1~4 |  |  |  |  |  | SCMA Results (MIC) (E. coli ATCC 25922 [3]): 0.5~1; SCMA Results (MIC) (P. aeruginosa ATCC 27853 [4]): 1~2
13 | CO/N=C(\C(=O)N[C@@H]1C(=O)N2C(C(=O)[O-])=C(C[N+]3(C)CCCC3)CS[C@H]12)c1csc(N)n1 [Cefepime] | Filament | Filament |  | 0.015~0.12 | 0.5~4 |  |  |  |  |  | SCMA Results (MIC) (E. coli ATCC 25922 [3]): 0.03~0.06; SCMA Results (MIC) (P. aeruginosa ATCC 27853 [4]): 0.5~2
14 | CC(C)(O/N=C(\C(=O)N[C@@H]1C(=O)N2C(C(=O)[O-])=C(C[n+]3ccccc3)CS[C@H]12)c1csc(N)n1)C(=O)O [Ceftazidime] | Filament | Filament formation | 0.5 µg/mL | 0.06~0.5 | 1~4 |  |  |  |  |  | SCMA Results (MIC) (P. aeruginosa ATCC 27853 [4]): 2~4
15 | C[C@@H](O)[C@H]1C(=O)N2C(C(=O)O)=C(S[C@@H]3CN[C@H](C(=O)N(C)C)C3)[C@H](C)[C@H]12 [Meropenem] |  | Swelling |  |  | 0.25~1 |  |  |  |  |  | SCMA Results (MIC) (P. aeruginosa ATCC 27853 [4]; unit assumed): 1 µg/mL
16 | NC[C@H]1O[C@H](O[C@H]2[C@H](O)[C@@H](O[C@H]3O[C@H](CO)[C@@H](O)[C@H](N)[C@H]3O)[C@H](N)C[C@@H]2N)[C@H](N)C[C@@H]1O [Tobramycin] |  | Normal |  |  | 0.25~1 |  |  |  |  |  | 
17 | CO[C@@]1(NC(=O)Cc2cccs2)C(=O)N2C(C(=O)O)=C(COC(N)=O)CS[C@@H]21 [Cefoxitin] | Filament |  | 2 µg/mL | 2~8 |  |  |  |  |  |  | 
18 | CCn1cc(C(=O)O)c(=O)c2cc(F)c(N3CCNCC3)cc21 [Norfloxacin] | Normal |  |  | 0.03~0.12 |  | RRG |  | 2~4 |  | 2~8 | SCMA Results (MIC) (E. coli ATCC 25922 [3]): 0.03~0.06
19 | CC(=O)NC[C@H]1CN(c2ccc(N3CCOCC3)c(F)c2)C(=O)O1 [Linezolid] |  |  |  |  |  | RSG | RSG | 1~2 | 1~4 | 1~4 | Criteria (change in morphology and growth pattern) (E. faecalis ATCC 29212 [7]; listed as linezolid): Relatively slow growth (RSG); SCMA Results (MIC) (S. aureus ATCC 29213 [10]; time to result 4 hr): 1~4
20 | [H]/N=C(/N)N[C@H]1[C@H](O)[C@@H](O)[C@H](O[C@@H]2O[C@@H](C)[C@](O)(C=O)[C@H]2O[C@@H]2O[C@@H](CO)[C@H](O)[C@@H](O)[C@@H]2NC)[C@@H](N/C(N)=N\[H])[C@@H]1O [Streptomycin High Level, Streptomycin] |  |  |  |  |  | Normal |  | ≤ 500 µg/mL |  |  | CLSI QC range (MIC) (E. faecalis ATCC 29212 [12]; unit assumed): ≤ 500 µg/mL
21 | Cc1onc(-c2ccccc2)c1C(=O)N[C@@H]1C(=O)N2[C@@H]1SC(C)(C)[C@@H]2C(=O)O [Oxacillin] |  |  |  |  |  |  | RRG |  | 0.12~0.5 |  | SCMA Results (MIC) (S. aureus ATCC 29213 [10]; [13]): 0.5 µg/mL
22 | C[C@H]1COc2c(N3CCN(C)CC3)c(F)cc3c(=O)c(C(=O)O)cn1c23 [Levofloxacin] |  |  |  |  |  |  |  | 1 µg/mL |  |  | SCMA Results (MIC) (S. aureus ATCC 29213 [10]; time to result 4 hr): 0.12~0.25
23 | Teicoplanin |  |  |  |  |  | Normal |  | 0.5 µg/mL |  | 0.25~1 | 
